Data reported in US10940126B2, “Inhibition of IL-8 in the treatment of pain and/or bone loss” (priority 2015, dated 2021).
Entries after “also recorded” stand apart in the source; their conditions may differ.

Experiments:
[1] = cited from earlier work
[2] = in vivo; cited from earlier work
neutrophil recruitment = settings: cited from earlier work
CXCR2 = molecular target: T1, CXCR2 (Homo sapiens, UniProt P25025); settings: relative to SB225002; cited from earlier work
T1 sequence (P25025 1-360): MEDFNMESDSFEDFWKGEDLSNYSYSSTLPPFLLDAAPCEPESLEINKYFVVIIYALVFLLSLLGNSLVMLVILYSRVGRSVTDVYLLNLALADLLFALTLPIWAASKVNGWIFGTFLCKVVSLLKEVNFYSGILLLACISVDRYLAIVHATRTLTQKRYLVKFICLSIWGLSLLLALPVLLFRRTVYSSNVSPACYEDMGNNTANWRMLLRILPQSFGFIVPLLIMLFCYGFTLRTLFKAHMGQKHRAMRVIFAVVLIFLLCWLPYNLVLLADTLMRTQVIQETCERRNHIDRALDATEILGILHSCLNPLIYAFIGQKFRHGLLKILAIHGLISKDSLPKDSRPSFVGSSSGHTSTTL

mice [3] = assay: Mechanical hypersensitivity: von Frey filaments, 50% withdrawal threshold of hind paws; assay type: in vivo
mice [4] = assay: Heat sensitivity, modified Hargreaves box; assay type: in vivo; settings: mice i.v. monoclonal ACPA D10 and B2; reparixin 30 mg/kg/day s.c. six days; tested day 26
Description: Heat sensitivity was examined using a modified Hargreaves box ([…]. et al., 1997). Mice were placed individually in Plexiglas cubicles on the glass surface and allowed to habituate. A radiant heat stimulus was then applied from below to a hind paw until a motion sensor detects a brisk withdrawal and stops the stimulus. Elapsed time is automatically recorded with a cutoff at 20 seconds. Three measurements from each paw were averaged and presented as latency (in seconds) for the withdrawal.

ankle joints and tibia = assay: Joint histology and micro-CT (synovitis, bone erosion, cartilage); assay type: in vivo; settings: mice
mice [5] = assay: Cold sensitivity, acetone drop on hind paw; assay type: in vivo; settings: mice i.v. monoclonal ACPA D10 and B2; reparixin 30 mg/kg/day s.c. six days; day 19
Description: To assess sensitivity to cold, the mice were placed in the same testing device as used for detection of mechanical hypersensitivity. After habituation, a 1 ml syringe was used to gently apply a drop of acetone to the plantar surface of the hind paw and the duration of the nocifensive behavior (lifting, shaking, biting, and licking the paw) was recorded. The test was repeated three times on each paw and the average was calculated.

osteoclasts = assay: Osteoclast activation under IL-8 receptor blockade; settings: blockade of IL-8 receptors
[6] = system: Cxcl1, Cxcl2 and other inflammatory factor mRNA; assay: Quantitative real-time PCR of ankle joint and plantar paw skin mRNA; assay type: in vivo, mice; settings: hD10/B02 mAb 1 mg each; zoledronate 100 ug/kg
Description: Ankle joints and plantar paw skin of the hind legs were processed for gene expression analysis. Muscle and tendons were removed from ankle joints, which were then snap frozen and pulverized. Tissues were sonicated in TRIzol (Invitrogen) and RNA was extracted according to manufacturer's protocol. After complementary DNA (cDNA) synthesis, quantitative real-time PCR (Applied Biosystems) was performed using hydrolysis probes to determine the relative messenger RNA (mRNA) levels. Primers for chemokines Ccl2 (MCP1, Mm00441242_m1), Cxcl1 (Mm04207460_m1), Cxcl2 (Mm00436450_m1), Cxcl5 (Mm00436451_g1), inflammatory cytokines Tnf (Mm00443258_m1), Il1b (Mm00434228_m1), Il6 (Mm00446190_m1), mast cell proteases Mcpt4 (Mcp4, Mm00487636-g1), Tpsb2 (Mcp6, Mm01301240-g1), pro-inflammatory enzyme Cox2 (Mm00478374_m1), matrix metallo proteases Mmp2 (Mm00439498_m1), Mmp9 (Mm00442991_m1), Mmp13 (Mm00439491-m1), and reference gene Hprt1 (Mm01545399_m1) (all from Applied Biosystems) were used to determine threshold cycle values to calculate the number of cell equivalents in each sample with the standard curve method. Data was normalized to Hprt1 values and expressed as relative expression units (REU).

RA synovial fibroblasts = settings: cited from earlier work
[7] = mice injected with hG09 or hC03, thresholds at baseline, 1.5, 3 and 6 hours

For C[C@H](CO)Nc1nc(SCc2cccc(F)c2F)nc2[nH]c(=O)sc12 [AZD-8309, 5-[[(2,3-Difluorophenyl)methyl]thio]-7-[[(1R)-2-hydroxy-1-methylethyl]amino]-thiazolo[4,5-d]pyrimidin-2(3H)-one], the “Tolerability in clinical trials” value ([1]; human, in vivo) is given as “well tolerated”.
For C[C@@H](C(N)=O)c1ccc(OS(=O)(=O)C(F)(F)F)cc1 [DF2162, 4-[(1R)-2-amino-1-methyl-2-oxoethyl]phenyl trifluoromethane sulfonate], the “Results in pre-clinical studies of adjuvant-induced polyarthritis and bleomycin-induced pulmonary inflammation and fibrosis” value [2] is given as “promising results”, the “CXCL1 and carrageenan-induced pain-like behavior” value (neutrophil recruitment; mice) is given as “blocked” and the “Neutrophil recruitment induced by injection of CXCL1 or carrageenan to the paw” value (neutrophil recruitment; mice) is given as “inhibits neutrophil recruitment”. The Nociceptor sensitization (neutrophil recruitment; mouse, in vivo) was “does not directly affect nociceptor sensitization”.
In the case of O=C(Nc1ccc(Cl)c(S(=O)(=O)N2CCNCC2)c1O)Nc1cccc(F)c1Cl [SB656933, 1-(2-chloro-3-fluorophenyl)-3-(4-chloro-2-hydroxy-3-piperazin-1-ylsulfonylphenyl)urea], the “Tolerability in clinical trials” value ([1]; human, in vivo) is listed as “well tolerated at all doses” and the “Potency as CXCR2 antagonist” value (CXCR2) is listed as “same potency as SB225002”.
For CC[C@@H](Nc1c(Nc2cccc(C(=O)N(C)C)c2O)c(=O)c1=O)c1ccc(C)o1 [SCH527123, 2-hydroxy-N,N-dimethyl-3-[[2-[[1(R)-(5-methyl-2-furanyl)propyl]amino]-3,4-dioxo-1-cyclobuten-1-yl]amino]benzamide], the “Adverse events in clinical trials” value ([1]; human, in vivo) is given as “no treatment-induced adverse events were observed”, the Severe asthma ([1]; oral, clinical trials) is given as “modest improvement” and the Sputum neutrophils ([1]; oral, clinical trials) is given as “reduction in sputum neutrophils”.
For O=C(O)Cc1ccccc1Nc1c(Cl)cccc1Cl [diclofenac], the “Pain measured as withdrawal threshold, effect of painkiller” value (“Pain measured … of painkiller” for short) (mice [3]; mice injected with hC03 and hB09G09, diclofenac 30 mg/kg, observed during 6 hours) was “apparent lack of effect”.
For NCC1(CC(=O)O)CCCCC1 [gabapentin], the “Pain measured … of painkiller” value (mice [3]; [7]) was “apparent lack of effect; also recorded: no detectable effect on pain”.
For COc1ccc2cc([C@H](C)C(=O)O)ccc2c1 [naproxen], the “Pain measured … of painkiller” value (mice [3]; [7]) was “apparent lack of effect; also recorded: no detectable effect on pain”.
In the case of CC(C)Cc1ccc([C@@H](C)C(=O)NS(C)(=O)=O)cc1 [reparixin, (2R)-2-[4-(2-methylpropyl)phenyl]-N-methylsulfonylpropanamide], the “ACPA-induced heat hypersensitivity, effect of treatment” value (mice [4]) is reported as “partially reversed”, the “Bone destruction induced by injected ACPA” value (ankle joints and tibia) is reported as “completely reversed” and the “ACPA-induced mechanical hypersensitivity, effect of treatment” value (mice [3]; mice i.v. monoclonal ACPA D10 and B2 (1 mg each), reparixin 30 mg/kg/day s.c. six consecutive days starting day 6, vs saline controls) is reported as “partially reversed”. The “Tactile thresholds in naive mice” value (mice [3]; naive mice not injected with ACPAs, treatment for six days) was “did not affect tactile thresholds”, the “Pain measured as withdrawal threshold, effect of treatment” value (mice [3]; pain induced by human monoclonal ACPA hC03 (hG09 control), reparixin 30 mg/kg once a day starting day 1) was “attenuating effects” and the “ACPA-induced sensitivity to cold, effect of treatment” value (mice [5]) was “attenuated sensitivity to cold”. The Activation of osteoclasts (osteoclasts) was “blocks the activation of osteoclasts”.
In the case of O=P(O)(O)C(O)(Cn1ccnc1)P(=O)(O)O [zoledronate], the “ACPA induced pain measured as withdrawal threshold, effect of osteoclast inhibitor” value (mice [3]; hD10/hB02 mAb 1 mg each, zoledronate for 10 days) is reported as “dose-dependent effect; also recorded: dose dependent effect” and the “ACPA-induced increase of CXCL1 mRNA in the ankle joint” value [6] is reported as “efficiently prevented”.
In the case of epigallocatechin-3-gallate [EGCG], the “Induction of IL-8 production” value (RA synovial fibroblasts) is listed as “inhibited the induction of IL-8 production”.
